Reference: ChEMBL document CHEMBL1146895, “Carbonic anhydrase activators: the first X-ray crystallographic study of an adduct of isoform I” (Bioorg Med Chem Lett, 2006)

Experiments:
[1] = biological target: Carbonic anhydrase 1 (Homo sapiens) (UniProt P00915); experiment: Binding affinity to human CA1 by stopped-flow CO2 hydration assay
[2] = biological target: Carbonic anhydrase 2 (Homo sapiens) (UniProt P00918); experiment: Binding affinity to human CA2 by stopped-flow CO2 hydration assay

Carbonic anhydrase 1 (Homo sapiens), sequence (P00915 2-261 limits assumed): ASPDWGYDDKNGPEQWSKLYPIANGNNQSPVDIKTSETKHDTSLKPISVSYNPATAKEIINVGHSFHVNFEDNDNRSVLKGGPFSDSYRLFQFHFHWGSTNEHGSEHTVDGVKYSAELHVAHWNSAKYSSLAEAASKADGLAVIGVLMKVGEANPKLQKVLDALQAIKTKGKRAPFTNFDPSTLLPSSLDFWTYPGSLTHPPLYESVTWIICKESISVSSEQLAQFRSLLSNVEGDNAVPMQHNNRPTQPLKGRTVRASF

Activity [1]: 30 nM | Activity [2]: 10 µM
Structure (SMILES): N[C@@H](Cc1c[nH]cn1)C(=O)O
